Experimental data as given in ChEMBL document CHEMBL1201862, “PubChem BioAssay data set” (2004).
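Assay format: 96-well plates, 48-hour exposure. GI50 marks 50% less growth.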 Activity calls are given as the source filed them. Rule as the data show it: active = GI50 up to about 1.1 µM and inactive = higher. Residues, ends and D or L forms follow the SMILES beside them. *: point of attachment. Cbz = O=C(OCc1ccccc1)*

Columns and labels:
Assay in all cases: DTP human tumour cell line panel, 48 h
SK-MEL-28 = test system: SK-MEL-28
SNB-78 = test system: SNB-78
CAKI-1 = test system: CAKI-1
M14 = test system: M14
SN12C = test system: SN12C
M19-MEL = test system: M19-MEL
HOP-62 = test system: HOP-62
NCI-H23 = test system: NCI-H23
HT-29 = test system: HT-29
KM-20L2 = test system: KM-20L2
NCI-H522 = test system: NCI-H522
TK-10 = test system: TK-10
NCI/ADR-RES = test system: NCI/ADR-RES
MCF7 = test system: MCF7
Hs-578T = test system: Hs-578T
T47D = test system: T47D
RXF 393 = test system: RXF 393
MDA-MB-435 = test system: MDA-MB-435
MDA-N = test system: MDA-N

Structure (SMILES) | GI50 (SK-MEL-28) | GI50 (SNB-78) | GI50 (CAKI-1) | GI50 (M14) | GI50 (SN12C) | GI50 (M19-MEL) | GI50 (HOP-62) | GI50 (NCI-H23) | GI50 (HT-29) | GI50 (KM-20L2) | GI50 (NCI-H522) | GI50 (TK-10) | GI50 (NCI/ADR-RES) | GI50 (MCF7) | GI50 (Hs-578T) | GI50 (T47D) | GI50 (RXF 393) | GI50 (MDA-MB-435) | GI50 (MDA-N)
NCCN1C(=O)C2C3c4ccccc4C(c4ccccc43)C2C1=O (centres undefined) | > 100 µM (inactive) | > 100 µM (inactive) | > 100 µM (inactive) | > 100 µM (inactive) | > 100 µM (inactive) | > 100 µM (inactive) | > 100 µM (inactive) | > 100 µM (inactive) | > 100 µM (inactive) | > 100 µM (inactive) | > 100 µM (inactive) | > 100 µM (inactive) | – | – | – | – | – | – | –
O=[N+]([O-])C1=Cc2c(O)ccc(O)c2C2c3ccccc3NC12 (centres undefined) | 18.5 µM (inactive) | – | 4.36 µM (inactive) | 13.2 µM (inactive) | 16.7 µM (inactive) | – | 11.3 µM (inactive) | 4.24 µM (inactive) | 9.02 µM (inactive) | – | 2.45 µM (inactive) | 16.1 µM (inactive) | 7.43 µM (inactive) | 2.71 µM (inactive) | 26.1 µM (inactive) | 7.03 µM (inactive) | 13.2 µM (inactive) | 14.7 µM (inactive) | 18.3 µM (inactive)
CCOC(=O)C(C(N)=O)C1=Nc2cc([N+](=O)[O-])ccc2N/C1=C\C(=O)c1ccccc1 (centres undefined) | 25.6 µM (inactive) | – | 22.9 µM (inactive) | 14.7 µM (inactive) | 23.1 µM (inactive) | – | 10.9 µM (inactive) | 11.5 µM (inactive) | 16.5 µM (inactive) | – | 14.9 µM (inactive) | 11 µM (inactive) | 16.8 µM (inactive) | 12.4 µM (inactive) | 16.5 µM (inactive) | 26 µM (inactive) | 17.7 µM (inactive) | 15.8 µM (inactive) | 18.7 µM (inactive)
CO[C@]12CCC(=O)N1C=Cc1c2[nH]c2ccccc12 | > 100 µM (inactive) | > 100 µM (inactive) | > 100 µM (inactive) | > 100 µM (inactive) | – | > 100 µM (inactive) | > 100 µM (inactive) | > 100 µM (inactive) | > 100 µM (inactive) | – | – | > 100 µM (inactive) | – | – | – | – | > 100 µM (inactive) | – | –
C1=C2C3=[N+](CCCC3)CC2Cc2sccc21 (centres undefined) | > 100 µM (inactive) | – | > 100 µM (inactive) | > 100 µM (inactive) | 92.7 µM (inactive) | – | 81.7 µM (inactive) | > 100 µM (inactive) | 53.2 µM (inactive) | – | 53 µM (inactive) | > 100 µM (inactive) | > 100 µM (inactive) | > 100 µM (inactive) | > 100 µM (inactive) | 74.8 µM (inactive) | > 100 µM (inactive) | > 100 µM (inactive) | > 100 µM (inactive)
Cc1nn(C(=O)c2ccc(Cl)cc2)c2c1C(c1cccc([N+](=O)[O-])c1)SC(=N)N2 (centres undefined) | > 10 µM (inactive) | – | > 10 µM (inactive) | > 10 µM (inactive) | > 10 µM (inactive) | – | > 10 µM (inactive) | > 10 µM (inactive) | > 10 µM (inactive) | – | > 10 µM (inactive) | > 10 µM (inactive) | > 10 µM (inactive) | > 10 µM (inactive) | > 10 µM (inactive) | > 10 µM (inactive) | > 10 µM (inactive) | > 10 µM (inactive) | > 10 µM (inactive)
C[C@H](CCC(=O)NCCS(=O)(=O)O)[C@H]1CC[C@H]2[C@@H]3[C@H](O)C[C@@H]4C[C@H](O)CC[C@]4(C)[C@H]3CC[C@]12C | > 100 µM (inactive) | – | > 100 µM (inactive) | > 100 µM (inactive) | > 100 µM (inactive) | – | > 100 µM (inactive) | > 100 µM (inactive) | > 100 µM (inactive) | – | > 100 µM (inactive) | > 100 µM (inactive) | 45.9 µM (inactive) | > 100 µM (inactive) | > 100 µM (inactive) | > 100 µM (inactive) | > 100 µM (inactive) | > 100 µM (inactive) | > 100 µM (inactive)
COc1cc(C2c3cc4c(cc3[C@@H](NCCN3CCCCC3)C3COC(=O)[C@H]23)OCO4)cc(OC)c1O (some centres undefined) | 2.42 µM (inactive) | 2.7 µM (inactive) | 0.0802 µM (active) | 0.324 µM (active) | 2.04 µM (inactive) | 1 µM (active) | 0.0624 µM (active) | 0.167 µM (active) | 1.23 µM (inactive) | 1.53 µM (inactive) | – | 1.89 µM (inactive) | – | – | – | – | – | – | –
CC(NC(=O)C(NC(=O)OCc1ccccc1)C(C)C)C(=O)NCC(=O)O (stereo not drawn) (Cbz-Val-Ala-Gly-OH; configuration not given here) | > 100 µM (inactive) | – | > 100 µM (inactive) | > 100 µM (inactive) | > 100 µM (inactive) | – | > 100 µM (inactive) | > 100 µM (inactive) | > 100 µM (inactive) | – | > 100 µM (inactive) | > 100 µM (inactive) | > 100 µM (inactive) | > 100 µM (inactive) | > 100 µM (inactive) | > 100 µM (inactive) | > 100 µM (inactive) | > 100 µM (inactive) | > 100 µM (inactive)
